The values that follow come from ChEMBL document CHEMBL1201862, “PubChem BioAssay data set” (2004).

Usually AC50 stands for the concentration giving half of the maximal activity seen. By CC50 is commonly meant the concentration giving 50% cytotoxicity. What is called IC50 is the point on the concentration scale where inhibition reaches its midpoint. The term EC50 denotes the concentration needed to bring the measured effect to its halfway point.

The target of experiment [1] is Scavenger receptor class B member 1 (Mus musculus, UniProt Q61009). Briefly: inhibitors of SR-BI mediated HDL lipid uptake, dose response, ldlA[mSR-BI] cells, fluorescence, cherry pick (AID 493194).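 Further: cellular uptake of fluorescent DiI-labeled HDL measured as cell fluorescence.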 The format is functional, cell-based.
Experiment [2] can be described thus: A Cell Based Secondary Assay To Explore Cytotoxicity of Compounds that Sensitize Mycobacterium Tuberculosis to Beta-Lactam Antibiotics. The format is functional.
The nature of experiment [3]: A549 cell cytotoxicity, dose response, cytotoxicity control, plate reader, cherry-pick, antagonist series (AID 743412). It counts as functional, cell-based.
Experiment [4] in a line: MC4R antagonists, dose response, counter-screen for LGR2 antagonist project, cell-based, plate reader, cherry pick (AID 743444).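 Further: transfected HEK 293 cells stimulated with alpha-MSH peptide; potency of inhibitors of the alpha-MSH evoked signal.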 It counts as functional. On the technique in general: Counterscreens check selectivity or assay interference.
A short description of experiment [5]: HEK293 cell cytotoxicity, dose response, cytotoxicity control, plate reader, cherry-picked samples (AID 743446). It counts as functional, cell-based.
Experiment [6] can be described thus: HepG2 cell cytotoxicity, dose response, cytotoxicity control, plate reader, cherry-pick, antagonist series (AID 743416). The format is functional, cell-based.
Experiment [7] is described as follows: LGR2 antagonists, dose response, cell-based, HEK293, CRE-luciferase reporter, cherry pick, set 2 (AID 743343).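 Further: transfected cells were stimulated with diluted bursicon conditioned medium after compound addition.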 It counts as functional.
The target in experiment [8] is Acyl-homoserine lactone acylase PvdQ (Pseudomonas aeruginosa (strain LESB58), UniProt Q9I194). Kind of experiment: P. aeruginosa PvdQ acylase inhibitors, dose response, biochemical, fluorescence, plate reader and imaging, cherry-picks (AID 493231).
In experiment [9] the target is T1, Voltage-gated N-type calcium channel alpha-1B subunit/Amyloid beta A4 precursor protein-binding family A member 1 (Homo sapiens, UniProt Q00975+Q02410). Kind of experiment: disruptors of Mint-PDZ/N-type channel peptide interaction – biochemical, HTRF, set 2, SAR follow-up (AID 434980). It counts as functional. (In general: Time-resolved FRET reads energy transfer from a long-lived donor to a nearby acceptor.)

Experiment [10] has as its target T1, Voltage-gated N-type calcium channel alpha-1B subunit/Amyloid beta A4 precursor protein-binding family A member 1. Briefly: disruptors of Mint-PDZ/N-type channel peptide interaction – biochemical, HTRF, SAR follow-up (AID 2489). It counts as functional.
Experiment [11] in a line: cytotoxicity in BJeHLT fibroblasts, dose response, counter-screen for Ras selective lethality project, BJeHLT cells, dry powder (AID 493052). It counts as functional, cell-based. As to conditions: Homo sapiens.
The nature of experiment [12]: cytotoxicity in BJeH fibroblasts, dose response, counter-screen for Ras selective lethality project, BJeH cells, dry powder (AID 493054). It counts as functional, cell-based.
The target of another experiment is Wee1-like protein kinase (Homo sapiens, UniProt P30291). Kind of experiment: G2/M cell cycle arrest in HeLa, late-stage follow-up, mechanism study for Wee1 degradation inhibitor project, FACS, panel member Wee1 Degradation (AID 2088).
Experiment [13] concerns the target G2/mitotic-specific cyclin-B1 (Homo sapiens, UniProt P14635). Briefly: G2/M cell cycle arrest in HeLa, late-stage follow-up, mechanism study for Wee1 degradation inhibitor project, FACS, panel member Cyclin B Degradation (AID 2088).
For experiment [14], the target named is Lysosomal acid glucosylceramidase (Homo sapiens, UniProt P04062). Kind of experiment: Dose response cell-based high throughput screening assay to identify enhancers of beta-glucosidase activity. [Related pubchem assays: 784 ]. The format is functional.
In experiment [15] the target is Mitogen-activated protein kinase 10 (Homo sapiens, UniProt P53779). Briefly: Dose response biochemical screening assay for inhibitors of c-Jun N-Terminal Kinase 3 (JNK3). [Related pubchem assays: 746 ].
Experiment [16] can be described thus: polyadenylation inhibitors in yeast reporter, dose response, luminescence, S. cerevisiae SKY197-pL101 (AID 2525). It counts as functional, cell-based.

Active and inactive are the calls of the source.

T1 sequence (Q00975 whole entry): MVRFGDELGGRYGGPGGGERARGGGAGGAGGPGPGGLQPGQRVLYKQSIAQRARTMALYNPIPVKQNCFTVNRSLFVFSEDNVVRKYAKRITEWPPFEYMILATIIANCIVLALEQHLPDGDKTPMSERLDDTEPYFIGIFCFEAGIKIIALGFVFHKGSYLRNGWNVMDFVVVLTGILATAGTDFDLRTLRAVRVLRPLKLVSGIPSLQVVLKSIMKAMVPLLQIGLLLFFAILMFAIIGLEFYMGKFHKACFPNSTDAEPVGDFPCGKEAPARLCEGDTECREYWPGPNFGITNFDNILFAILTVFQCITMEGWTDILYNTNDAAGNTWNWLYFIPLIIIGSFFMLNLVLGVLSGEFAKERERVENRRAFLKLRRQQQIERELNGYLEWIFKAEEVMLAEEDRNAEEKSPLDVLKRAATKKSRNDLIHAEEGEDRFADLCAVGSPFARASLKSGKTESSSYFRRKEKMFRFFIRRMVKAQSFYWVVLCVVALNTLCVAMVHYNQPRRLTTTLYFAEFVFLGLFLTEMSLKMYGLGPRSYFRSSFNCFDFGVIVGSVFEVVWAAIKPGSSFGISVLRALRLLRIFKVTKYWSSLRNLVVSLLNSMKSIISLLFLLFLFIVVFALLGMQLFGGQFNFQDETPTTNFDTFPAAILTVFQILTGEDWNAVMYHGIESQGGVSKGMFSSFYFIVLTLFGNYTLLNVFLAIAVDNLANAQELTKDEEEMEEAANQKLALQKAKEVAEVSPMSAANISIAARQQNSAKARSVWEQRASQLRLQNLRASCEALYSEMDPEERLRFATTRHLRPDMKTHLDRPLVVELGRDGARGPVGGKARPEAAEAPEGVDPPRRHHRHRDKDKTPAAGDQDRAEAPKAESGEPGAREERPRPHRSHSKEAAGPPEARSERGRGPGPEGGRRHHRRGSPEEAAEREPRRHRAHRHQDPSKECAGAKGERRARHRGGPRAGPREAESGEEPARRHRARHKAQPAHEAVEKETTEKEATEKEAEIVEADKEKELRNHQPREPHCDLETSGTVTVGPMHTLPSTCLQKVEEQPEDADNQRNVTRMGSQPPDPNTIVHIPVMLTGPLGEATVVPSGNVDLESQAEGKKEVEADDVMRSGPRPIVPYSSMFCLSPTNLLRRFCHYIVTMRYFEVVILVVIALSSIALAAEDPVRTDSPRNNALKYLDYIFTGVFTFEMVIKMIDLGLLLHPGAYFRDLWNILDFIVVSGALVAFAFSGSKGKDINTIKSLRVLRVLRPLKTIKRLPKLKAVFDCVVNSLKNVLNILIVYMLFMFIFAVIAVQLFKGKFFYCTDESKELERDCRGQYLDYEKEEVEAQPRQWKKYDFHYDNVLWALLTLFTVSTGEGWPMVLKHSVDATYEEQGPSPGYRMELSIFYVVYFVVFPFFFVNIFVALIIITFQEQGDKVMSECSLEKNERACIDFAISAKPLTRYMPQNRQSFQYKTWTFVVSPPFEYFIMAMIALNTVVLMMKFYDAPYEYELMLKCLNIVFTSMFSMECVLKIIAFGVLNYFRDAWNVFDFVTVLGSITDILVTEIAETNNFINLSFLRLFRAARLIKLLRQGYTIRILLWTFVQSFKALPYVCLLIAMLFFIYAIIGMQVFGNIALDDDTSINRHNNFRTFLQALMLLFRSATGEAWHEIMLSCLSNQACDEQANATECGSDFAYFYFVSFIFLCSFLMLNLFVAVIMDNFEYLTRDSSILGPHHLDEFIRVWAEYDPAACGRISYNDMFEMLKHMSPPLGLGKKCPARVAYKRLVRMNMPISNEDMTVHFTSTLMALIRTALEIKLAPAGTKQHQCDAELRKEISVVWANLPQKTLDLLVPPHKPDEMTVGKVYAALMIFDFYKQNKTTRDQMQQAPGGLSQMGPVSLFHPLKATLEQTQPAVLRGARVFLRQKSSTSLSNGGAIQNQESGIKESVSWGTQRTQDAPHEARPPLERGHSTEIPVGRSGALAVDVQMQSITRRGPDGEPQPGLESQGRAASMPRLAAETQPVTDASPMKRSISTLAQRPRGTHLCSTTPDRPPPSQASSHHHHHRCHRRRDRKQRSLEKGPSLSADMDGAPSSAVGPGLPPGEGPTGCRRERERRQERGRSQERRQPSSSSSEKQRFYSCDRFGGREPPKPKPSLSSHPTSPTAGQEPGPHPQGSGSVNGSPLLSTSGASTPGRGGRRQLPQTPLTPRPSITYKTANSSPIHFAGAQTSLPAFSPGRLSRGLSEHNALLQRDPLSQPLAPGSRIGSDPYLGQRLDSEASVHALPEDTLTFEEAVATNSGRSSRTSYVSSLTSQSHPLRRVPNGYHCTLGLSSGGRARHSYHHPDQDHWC
T1 sequence (Q02410 whole entry): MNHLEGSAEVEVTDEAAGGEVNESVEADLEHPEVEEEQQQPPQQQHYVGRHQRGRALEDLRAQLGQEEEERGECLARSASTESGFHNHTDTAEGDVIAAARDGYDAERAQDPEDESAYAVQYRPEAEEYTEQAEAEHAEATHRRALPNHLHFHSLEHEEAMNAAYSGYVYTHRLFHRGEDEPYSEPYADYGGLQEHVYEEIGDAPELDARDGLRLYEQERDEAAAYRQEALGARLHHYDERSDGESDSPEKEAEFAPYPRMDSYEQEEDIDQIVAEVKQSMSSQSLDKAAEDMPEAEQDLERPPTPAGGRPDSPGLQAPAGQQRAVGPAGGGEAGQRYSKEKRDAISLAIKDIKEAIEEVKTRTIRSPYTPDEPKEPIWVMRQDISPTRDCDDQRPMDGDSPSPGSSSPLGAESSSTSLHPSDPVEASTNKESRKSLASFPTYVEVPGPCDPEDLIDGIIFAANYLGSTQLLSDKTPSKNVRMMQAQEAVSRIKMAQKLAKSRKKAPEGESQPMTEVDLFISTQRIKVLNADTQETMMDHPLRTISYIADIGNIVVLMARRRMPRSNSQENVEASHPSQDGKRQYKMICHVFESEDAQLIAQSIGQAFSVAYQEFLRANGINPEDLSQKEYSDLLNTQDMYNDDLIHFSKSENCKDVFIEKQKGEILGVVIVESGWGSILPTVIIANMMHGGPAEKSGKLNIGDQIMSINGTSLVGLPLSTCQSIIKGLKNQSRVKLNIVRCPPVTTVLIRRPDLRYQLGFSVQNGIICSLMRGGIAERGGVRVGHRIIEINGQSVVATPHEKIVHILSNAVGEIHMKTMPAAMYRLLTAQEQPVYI
Sequence of Acyl-homoserine lactone acylase PvdQ (Q9I194 24-193 limits assumed): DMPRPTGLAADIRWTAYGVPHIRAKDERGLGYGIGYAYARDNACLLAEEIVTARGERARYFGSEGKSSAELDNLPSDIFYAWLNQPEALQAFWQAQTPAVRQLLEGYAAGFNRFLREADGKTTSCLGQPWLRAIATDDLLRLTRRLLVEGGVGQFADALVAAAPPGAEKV
Sequence of Acyl-homoserine lactone acylase PvdQ (Q9I194 217-762 limits assumed): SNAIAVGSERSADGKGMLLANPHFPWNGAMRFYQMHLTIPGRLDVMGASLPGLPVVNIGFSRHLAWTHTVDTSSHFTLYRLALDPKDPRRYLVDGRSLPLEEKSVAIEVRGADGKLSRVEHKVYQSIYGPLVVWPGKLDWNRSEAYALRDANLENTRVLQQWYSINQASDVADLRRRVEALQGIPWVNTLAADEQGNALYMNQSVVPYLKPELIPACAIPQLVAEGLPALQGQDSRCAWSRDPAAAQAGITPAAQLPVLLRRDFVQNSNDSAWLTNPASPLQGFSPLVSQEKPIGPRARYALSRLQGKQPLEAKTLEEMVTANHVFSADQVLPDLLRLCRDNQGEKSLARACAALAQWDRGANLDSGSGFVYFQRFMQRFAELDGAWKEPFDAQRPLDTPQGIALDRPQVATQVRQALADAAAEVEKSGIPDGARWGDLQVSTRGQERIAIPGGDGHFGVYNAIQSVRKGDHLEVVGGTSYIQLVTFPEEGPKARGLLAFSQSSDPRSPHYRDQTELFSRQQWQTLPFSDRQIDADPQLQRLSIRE
Sequence of Lysosomal acid glucosylceramidase (P04062 whole entry): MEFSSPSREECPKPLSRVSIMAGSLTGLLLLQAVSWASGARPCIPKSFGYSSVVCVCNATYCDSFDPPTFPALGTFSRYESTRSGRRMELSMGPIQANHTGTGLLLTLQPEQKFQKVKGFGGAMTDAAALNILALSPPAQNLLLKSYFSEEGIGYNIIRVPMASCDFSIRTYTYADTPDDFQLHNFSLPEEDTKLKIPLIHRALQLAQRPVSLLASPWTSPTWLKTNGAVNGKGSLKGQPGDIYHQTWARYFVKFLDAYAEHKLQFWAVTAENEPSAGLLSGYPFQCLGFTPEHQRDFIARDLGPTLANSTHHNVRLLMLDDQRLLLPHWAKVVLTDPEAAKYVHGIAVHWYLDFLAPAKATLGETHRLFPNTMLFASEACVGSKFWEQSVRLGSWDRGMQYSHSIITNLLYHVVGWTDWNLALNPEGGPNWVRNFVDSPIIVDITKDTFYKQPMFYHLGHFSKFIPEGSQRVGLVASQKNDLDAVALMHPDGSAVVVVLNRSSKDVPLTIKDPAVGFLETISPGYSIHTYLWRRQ
Sequence of Wee1-like protein kinase (P30291 whole entry): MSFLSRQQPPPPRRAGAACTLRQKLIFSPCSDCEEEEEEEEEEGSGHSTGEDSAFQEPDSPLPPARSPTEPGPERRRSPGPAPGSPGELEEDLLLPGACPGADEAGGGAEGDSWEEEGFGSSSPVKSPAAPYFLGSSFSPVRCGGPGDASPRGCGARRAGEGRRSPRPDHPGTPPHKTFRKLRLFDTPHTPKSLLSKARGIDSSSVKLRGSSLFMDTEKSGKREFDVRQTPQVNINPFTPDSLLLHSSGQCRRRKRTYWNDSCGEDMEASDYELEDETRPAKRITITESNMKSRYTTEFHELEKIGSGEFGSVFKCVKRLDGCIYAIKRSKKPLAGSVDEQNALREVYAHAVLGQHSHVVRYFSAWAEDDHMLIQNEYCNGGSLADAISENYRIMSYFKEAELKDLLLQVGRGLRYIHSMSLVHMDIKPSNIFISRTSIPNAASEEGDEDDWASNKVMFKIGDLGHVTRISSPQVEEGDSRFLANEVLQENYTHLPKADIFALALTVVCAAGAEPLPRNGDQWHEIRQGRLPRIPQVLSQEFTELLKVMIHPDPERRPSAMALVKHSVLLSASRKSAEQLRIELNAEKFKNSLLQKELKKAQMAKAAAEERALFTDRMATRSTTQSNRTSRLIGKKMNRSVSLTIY

For `Cc1ccc2oc(-c3cccc(NC(=O)c4cc(-n5cnnc5)ccc4Cl)c3)nc2c1`, the concentration at half-maximal activity (AC50) in experiment [1] is 8.18 µM (active).

With `COc1ccc2c(c1)c(C(C)=O)c(C)n2-c1ccccc1`, in [2], the 50% cytotoxic concentration (CC50) was > 40 µM (active).

As to `CCOc1ccc(-c2cn3ccccc3n2)cc1`, the AC50 in experiment [3] is > 52 µM (inactive); in experiment [4] it was 4.5 µM (active); in experiment [5] it was > 52 µM (inactive); in experiment [6], > 52 µM (inactive); in [7], 5.05 µM (active); in experiment [8], 92.1 µM (active).

For `COc1cccc(CCNC(=O)c2cc(-c3ccco3)nc3ccccc23)c1`, the IC50 in experiment [9] and in experiment [10] was > 56.8 µM (inactive) in each case.

Take `COc1ccc(N(C(=O)[C@@H](C)Cl)C(C(=O)NCCc2ccccc2)c2cccs2)cc1Cl` (some centres not stated): the AC50 in [11] and in experiment [12] was > 454 µM (inactive) throughout.

In the case of `CCc1ccc(NC(=O)CCCOc2cc(=O)n(C)c3ccccc23)cc1`, the EC50 (at Wee1-like protein kinase; in [13]) was > 49.7 µM (inactive) each time.

As for `Cc1ccnc(Nc2nc(-c3c(C)nc4sccn34)cs2)c1`, in [14], the EC50 is recorded as > 50 µM (not active). For the same molecule, the half-inhibitory concentration (IC50) in experiment [15] is > 93.1 µM (not active).

With `CCN1/C(=C/C=C/c2sc3ccccc3[n+]2CC)Sc2ccccc21` [ALAZANINE], the EC50 in experiment [16] was 243 µM (active).
